# Data reported in ChEMBL document CHEMBL4251556, “Selective kappa opioid antagonists for treatment of addiction, are we there yet?” (Eur J Med Chem, 2017).
# Residues, ends and D or L forms follow the SMILES beside them.
# Legend:
# [1] = target: Delta-type opioid receptor (Rattus norvegicus, UniProt P33533); experiment: Displacement of [3H]DADLE from delta-opioid receptor in rat brain membranes after 2 hrs; format: cell membranes, Membrane
# Mu-type opioid receptor [2] = target: T1, Mu-type opioid receptor (Rattus norvegicus, UniProt P33535); experiment: Displacement of [3H]DAMGO from mu-opioid receptor in rat brain membranes after 2 hrs; format: cell membranes, Membrane
# [3] = target: Kappa-type opioid receptor (Cavia porcellus) (UniProt P41144); experiment: Displacement of [3H]CI-977 from kappa opioid receptor in guinea pig brain membranes after 2 hrs by scintillation counting method; format: cell membranes; conditions: Membrane, concentration not given here
# [4] = target: T2, Kappa-type opioid receptor (Homo sapiens, UniProt P41145); experiment: Displacement of [3H]-diprenorphine from human kappa opioid receptor expressed in CHO cells after 1 hr; format: cell-based
# [5] = Selectivity ratio of Ki for rat mu-opioid receptor in expressed in rat C6 cell membranes to Ki for human kappa opioid receptor expressed in CHO cell membranes; format: cell-based
# Mu-type opioid receptor [6] = target: T1, Mu-type opioid receptor; experiment: Displacement of [3H]-diprenorphine from rat mu-opioid receptor in expressed in rat C6 cell membranes after 1 hr
# Rattus norvegicus = experiment: […] activity in po dosed rat assessed as reversal of U-69593-induced pain response; format: functional
# [7] = target: T2, Kappa-type opioid receptor; experiment: Antagonist activity at kappa opioid receptor (unknown origin); format: functional
# Mu-type opioid receptor [8] = target: Mu-type opioid receptor (Homo sapiens, UniProt P35372); experiment: Antagonist activity at human mu opioid receptor expressed in CHO cells assessed as stimulation of [35S]GTPgammaS; format: functional, cell-based
# [9] = target: T2, Kappa-type opioid receptor; experiment: Antagonist activity at human kappa opioid receptor expressed in CHO cells assessed as stimulation of [35S]GTPgammaS; format: functional, cell-based
# [10] = target: Delta-type opioid receptor (Homo sapiens, UniProt P41143); experiment: Antagonist activity at human delta opioid receptor expressed in CHO cells assessed as stimulation of [35S]GTPgammaS; format: functional, cell-based
# [11] = target: G_PROTEIN_RECEP_F1_2 domain-containing protein (Cavia porcellus, UniProt A0A286XTF2); experiment: Displacement of [3H]DPDPE from delta-opioid receptor in guinea pig brain membranes after 30 mins by scintillation counting method; format: cell membranes, Membrane
# Oryctolagus cuniculus = species on record: Oryctolagus cuniculus; experiment: Antagonist activity at KOR in Japanese white rabbit vas deferens assessed as inhibition of asimadoline-induced suppression of electric field stimulated twitch response after 30 mins
# [12] = Selectivity ratio of Ki for delta-opioid receptor in rat brain membranes to Ki for kappa opioid receptor in guinea pig brain membranes; format: cell membranes
# [13] = Selectivity ratio of Ki for mu-opioid receptor in rat brain membranes to Ki for kappa opioid receptor in guinea pig brain membranes; format: cell membranes
# [14] = target: Kappa-type opioid receptor (Cavia porcellus, UniProt P41144); experiment: Displacement of [3H]U69,593 from kappa opioid receptor in guinea pig brain membranes after 2 hrs; format: cell membranes, Membrane
# Homo sapiens [15] = species on record: Homo sapiens; experiment: Selectivity ratio of Ki for Mu opioid receptor (unknown origin) to Ki for kappa opioid receptor (unknown origin)
# Homo sapiens [16] = species on record: Homo sapiens; experiment: Selectivity ratio of Ki for delta opioid receptor (unknown origin) to Ki for kappa opioid receptor (unknown origin)
# T1 sequence (P33535 whole entry): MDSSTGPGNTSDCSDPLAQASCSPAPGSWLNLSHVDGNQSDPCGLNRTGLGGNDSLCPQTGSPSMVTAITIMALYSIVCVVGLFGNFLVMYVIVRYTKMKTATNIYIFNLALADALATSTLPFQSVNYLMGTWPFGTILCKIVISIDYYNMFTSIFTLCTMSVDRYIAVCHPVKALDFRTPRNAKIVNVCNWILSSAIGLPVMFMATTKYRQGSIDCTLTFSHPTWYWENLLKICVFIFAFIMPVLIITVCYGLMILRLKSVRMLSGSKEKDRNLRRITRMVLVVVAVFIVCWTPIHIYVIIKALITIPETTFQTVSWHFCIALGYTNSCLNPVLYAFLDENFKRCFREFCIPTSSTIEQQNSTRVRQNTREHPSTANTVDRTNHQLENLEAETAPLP
# T2 sequence (P41145 whole entry): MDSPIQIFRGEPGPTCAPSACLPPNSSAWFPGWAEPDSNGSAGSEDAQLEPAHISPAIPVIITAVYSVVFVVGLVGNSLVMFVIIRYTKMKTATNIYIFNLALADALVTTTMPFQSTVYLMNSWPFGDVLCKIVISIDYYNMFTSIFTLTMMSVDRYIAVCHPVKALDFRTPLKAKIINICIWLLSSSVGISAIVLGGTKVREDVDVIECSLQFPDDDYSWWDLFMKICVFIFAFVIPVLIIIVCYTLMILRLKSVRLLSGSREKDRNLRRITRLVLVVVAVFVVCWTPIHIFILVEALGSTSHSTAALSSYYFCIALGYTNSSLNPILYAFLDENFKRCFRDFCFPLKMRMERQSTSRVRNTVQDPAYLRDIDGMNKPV
# Chain of Kappa-type opioid receptor (Cavia porcellus, UniProt P41144) (P41144 whole entry): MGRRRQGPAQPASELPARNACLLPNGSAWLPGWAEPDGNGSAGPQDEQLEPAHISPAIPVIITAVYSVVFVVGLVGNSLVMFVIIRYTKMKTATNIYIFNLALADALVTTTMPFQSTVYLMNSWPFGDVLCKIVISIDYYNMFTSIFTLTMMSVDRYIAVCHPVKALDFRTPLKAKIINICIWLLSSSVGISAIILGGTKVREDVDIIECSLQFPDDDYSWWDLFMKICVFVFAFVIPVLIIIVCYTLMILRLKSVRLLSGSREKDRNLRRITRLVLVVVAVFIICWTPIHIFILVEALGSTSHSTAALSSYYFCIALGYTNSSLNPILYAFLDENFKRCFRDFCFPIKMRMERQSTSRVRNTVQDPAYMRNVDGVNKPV
# Chain of Kappa-type opioid receptor (Cavia porcellus) (P41144 whole entry): as above
# Chain of Mu-type opioid receptor (Homo sapiens, UniProt P35372) (P35372 whole entry): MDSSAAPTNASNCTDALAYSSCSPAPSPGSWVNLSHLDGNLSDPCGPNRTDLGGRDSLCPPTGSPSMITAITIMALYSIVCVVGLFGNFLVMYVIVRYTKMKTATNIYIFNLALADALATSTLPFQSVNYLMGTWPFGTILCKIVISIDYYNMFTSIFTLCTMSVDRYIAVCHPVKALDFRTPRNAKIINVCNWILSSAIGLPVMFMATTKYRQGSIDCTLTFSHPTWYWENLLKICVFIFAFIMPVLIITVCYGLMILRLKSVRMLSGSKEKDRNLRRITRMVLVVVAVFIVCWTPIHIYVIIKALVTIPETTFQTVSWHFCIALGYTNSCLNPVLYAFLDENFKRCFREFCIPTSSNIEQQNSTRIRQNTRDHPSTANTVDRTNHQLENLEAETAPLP
# Chain of Delta-type opioid receptor (Rattus norvegicus, UniProt P33533) (P33533 whole entry): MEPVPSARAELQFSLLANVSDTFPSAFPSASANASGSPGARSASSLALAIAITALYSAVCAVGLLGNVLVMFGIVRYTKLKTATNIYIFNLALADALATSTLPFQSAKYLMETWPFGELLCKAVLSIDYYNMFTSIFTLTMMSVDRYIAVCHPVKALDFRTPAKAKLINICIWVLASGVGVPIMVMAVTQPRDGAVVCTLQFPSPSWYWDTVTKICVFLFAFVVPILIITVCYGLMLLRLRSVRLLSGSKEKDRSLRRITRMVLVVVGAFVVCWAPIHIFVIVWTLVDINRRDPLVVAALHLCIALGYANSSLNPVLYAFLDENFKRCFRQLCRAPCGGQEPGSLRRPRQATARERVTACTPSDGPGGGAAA
# Chain of G_PROTEIN_RECEP_F1_2 domain-containing protein (A0A286XTF2 whole entry): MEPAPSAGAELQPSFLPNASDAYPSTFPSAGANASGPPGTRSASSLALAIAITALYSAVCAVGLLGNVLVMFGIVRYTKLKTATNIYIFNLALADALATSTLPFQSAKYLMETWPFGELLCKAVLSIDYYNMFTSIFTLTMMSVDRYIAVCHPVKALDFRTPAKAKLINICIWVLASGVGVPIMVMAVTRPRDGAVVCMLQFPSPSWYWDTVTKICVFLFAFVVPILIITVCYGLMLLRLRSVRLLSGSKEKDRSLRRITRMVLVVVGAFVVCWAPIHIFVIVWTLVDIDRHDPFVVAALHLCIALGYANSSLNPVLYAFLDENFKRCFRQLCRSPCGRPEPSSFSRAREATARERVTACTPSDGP
# Chain of Delta-type opioid receptor (Homo sapiens, UniProt P41143) (P41143 whole entry): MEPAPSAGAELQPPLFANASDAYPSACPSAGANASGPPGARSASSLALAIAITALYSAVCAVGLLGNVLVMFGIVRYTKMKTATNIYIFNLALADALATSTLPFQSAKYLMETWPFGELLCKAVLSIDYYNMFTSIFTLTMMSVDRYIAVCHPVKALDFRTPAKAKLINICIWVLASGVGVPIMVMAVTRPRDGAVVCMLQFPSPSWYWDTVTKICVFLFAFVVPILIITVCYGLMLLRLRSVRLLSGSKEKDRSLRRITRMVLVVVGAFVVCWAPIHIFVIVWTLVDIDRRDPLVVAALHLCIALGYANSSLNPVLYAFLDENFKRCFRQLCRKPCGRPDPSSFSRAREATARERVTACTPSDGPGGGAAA
structure (smiles),measurement,setting,value
CC(C)[C@@H](CN1CC[C@@](C)(c2cccc(O)c2)[C@@H](C)C1)NC(=O)[C@H]1Cc2ccc(O)cc2CN1 [JDTIC],Ki,[1],> 300 nM
same,Ki,Mu-type opioid receptor [2],2.16 nM
CC(C)CNCc1ccc(-c2ccccc2S(=O)(=O)N2CCCC2)cc1,inhibition,[3],82%
CCOC(=O)C(CN1CC[C@@](C)(c2cccc(O)c2)[C@@H](C)C1)OC(=O)[C@H]1Cc2ccc(O)cc2CN1 (some centres not stated),Ki,[4],2.39 nM
C[C@H]1CN(CCOC(=O)[C@H]2Cc3ccc(O)cc3CN2)CC[C@@]1(C)c1cccc(O)c1,Ki,[4],135 nM
same,Ratio Ki,[5],0.72
same,Ki,Mu-type opioid receptor [6],97.7 nM
C[C@H]1CN(CCCOC(=O)[C@H]2Cc3ccc(O)cc3CN2)CC[C@@]1(C)c1cccc(O)c1,Ki,[4],174 nM
same,Ratio Ki,[5],0.54
same,Ki,Mu-type opioid receptor [6],93 nM
Cc1cc(C)cc([C@@H]2CCCN2Cc2ccc(Oc3ccc(C(N)=O)cc3F)cc2)c1 [ATICAPRANT],ED50,Rattus norvegicus,0.4 mg/kg
N=C(N)NCCC[C@@H]1NC(=O)[C@H](CCCNC(=N)N)NC(=O)[C@H](NC(=O)[C@H](Cc2ccccc2)NC(=O)CNC(=O)CNC(=O)[C@H](Cc2ccc(O)cc2)NCc2ccccc2)CC(=O)NC[C@@H](C(=O)N[C@@H](CCCNC(=N)N)C(=O)N2CCC[C@H]2C(=O)N[C@@H](CCCCN)C(N)=O)NC1=O,Ki,[7],30 nM
CCCCC(=N)NCCc1ccc2c(c1)C1C[C@@]3(O)[C@H]4Cc5ccc(O)c6c5[C@@]3(CCN4CC3CC3)[C@@H](O6)C1N2 (some centres not stated),Ki,Mu-type opioid receptor [8],5.33 nM
same,Ki,[9],0.17 nM
same,Ki,[10],3.31 nM
"O=C1N[C@@H](Cc2ccccc2)C(=O)N2CCC[C@@H]2C(=O)N[C@@H](Cc2ccccc2)C(=O)N[C@H]1Cc1c[nH]c2ccccc12 (HELM PEPTIDE1{F.W.F.[dP]}$PEPTIDE1,PEPTIDE1,1:R1-4:R2$$$V2.0)",IC50,[11],2600 nM
same,ED50,Oryctolagus cuniculus,1.3 µM
CC(=O)N1Cc2cc(O)ccc2C[C@@H]1C(=O)N[C@H](CN1CC[C@@](C)(c2cccc(O)c2)[C@@H](C)C1)C(C)C,Ratio Ki,[12],> 34
same,Ratio Ki,[13],5
same,Ki,[14],164 nM
CC(=O)N[C@@H](Cc1ccccc1)C(=O)N[C@@H](Cc1ccccc1)C(=O)N[C@@H](Cc1ccccc1)C(=O)N[C@@H](CCCNC(=N)N)C(=O)N[C@@H](CC(C)C)C(=O)N[C@@H](CCCNC(=N)N)C(=O)N[C@@H](CCCNC(=N)N)C(=O)N[C@H](C)C(=O)N[C@@H](CCCNC(=N)N)C(=O)N1CCC[C@H]1C(=O)N[C@@H](CCCCN)C(N)=O (HELM PEPTIDE1{[ac].F.F.F.R.L.R.R.[dA].R.P.K.[am]}$$$$V2.0),Ki,[7],10 nM
same,Ratio Ki,Homo sapiens [15],174
same,Ratio Ki,Homo sapiens [16],583
CC(C)[C@@H](CN1CC[C@@](C)(c2cccc(O)c2)[C@@H](C)C1)NC(=O)[C@H]1Cc2ccc(O)cc2CN1C(=O)CN(C)C,Ratio Ki,[12],> 219
same,Ratio Ki,[13],11
CC(C)[C@@H](CN1CC[C@@](C)(c2cccc(O)c2)[C@@H](C)C1)NC(=O)[C@H]1Cc2ccc(O)cc2CN1C,Ratio Ki,[12],11600
same,Ratio Ki,[13],700
